Values joined by “and” are separate entries in the source; they are usually repeats but may differ in a detail not shown here. Equal entries are not always repeated. Toxic doses and inconclusive results are not listed.
Test system: BDF1 mice, P388 leukemia ip, median survival T/C
Experiment: NCI In Vivo Anticancer Drug Screen. Data for tumor model P388 Leukemia (intraperitoneal) in B6D2F1 (BDF1) mice
Settings: endpoint: median survival time, higher = longer survival
In short: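 Vehicle-dosed animals serve as the reference; survival of compound-dosed, tumour-implanted mice is divided by it.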

[1] = dose: 100.0 mg/kg/injection, schedule: Q04DX003 (ip), vehicle: Klucel (hydroxypropylcellulose) (HPC)
[2] = dose: 200.0 mg/kg/injection, schedule: Q04DX003 (ip), vehicle: Klucel (hydroxypropylcellulose) (HPC)
[3] = dose: 300.0 mg/kg/injection, schedule: Q01DX009 (ip), vehicle: Klucel (hydroxypropylcellulose) (HPC)
[4] = dose: 400.0 mg/kg/injection, schedule: Q04DX003 (ip), vehicle: Klucel (hydroxypropylcellulose) (HPC)
[5] = dose: 50.0 mg/kg/injection, schedule: Q01DX009 (ip), vehicle: saline with Tween-80
[6] = dose: 100.0 mg/kg/injection, schedule: Q01DX009 (ip), vehicle: saline with Tween-80
[7] = dose: 200.0 mg/kg/injection, schedule: Q01DX009 (ip), vehicle: saline with Tween-80
[8] = dose: 25.0 mg/kg/injection, schedule: Q01DX009 (ip), vehicle: Klucel (hydroxypropylcellulose) (HPC)
[9] = dose: 50.0 mg/kg/injection, schedule: Q01DX009 (ip), vehicle: Klucel (hydroxypropylcellulose) (HPC)
[10] = dose: 200.0 mg/kg/injection, schedule: Q01DX009 (ip), vehicle: Klucel (hydroxypropylcellulose) (HPC)
[11] = dose: 100.0 mg/kg/injection, schedule: Q01DX009 (ip), vehicle: Klucel (hydroxypropylcellulose) (HPC)
[12] = dose: 400.0 mg/kg/injection, schedule: Q01DX009 (ip), vehicle: Klucel (hydroxypropylcellulose) (HPC)
[13] = dose: 25.0 mg/kg/injection, schedule: Q01DX009 (ip), vehicle: saline with Tween-80
[14] = dose: 100.0 mg/kg/injection, schedule: Q04DX003 (ip), vehicle: saline
[15] = dose: 6.25 mg/kg/injection, schedule: Q01DX009 (ip), vehicle: saline with Tween-80
[16] = dose: 12.5 mg/kg/injection, schedule: Q01DX009 (ip), vehicle: saline with Tween-80

CCCCC(C(C)=O)C(C)C (stereo not given)
T/C (dose: 75.0 mg/kg/injection, schedule: Q01DX009 (ip), vehicle: Klucel (hydroxypropylcellulose) (HPC)): 90 % of control | T/C [1]: 111 % of control | T/C (dose: 150.0 mg/kg/injection, schedule: Q01DX009 (ip), vehicle: Klucel (hydroxypropylcellulose) (HPC)): 90 % of control | T/C [2]: 96 % of control | T/C [3]: 95 % of control | T/C [4]: 96 % of control

CCC(CC)OCCN1CCN(CCCN2c3ccccc3Sc3ccc(C(F)(F)F)cc32)CC1
T/C (dose: 5.0 mg/kg/injection, schedule: Q04DX003 (ip), vehicle: saline with Tween-80): 103 % of control and 104 % of control | T/C (dose: 10.0 mg/kg/injection, schedule: Q04DX003 (ip), vehicle: saline with Tween-80): 108 % of control and 116 % of control | T/C (dose: 20.0 mg/kg/injection, schedule: Q04DX003 (ip), vehicle: saline with Tween-80): 122 % of control

CC(=O)O[C@]1(C(C)=O)CC[C@H]2[C@@H]3C[C@H](Cl)C4=CC(=O)CC[C@]4(C)[C@H]3CC[C@@]21C
T/C [5]: 113 % of control | T/C [6]: 109 % of control | T/C (dose: 100.0 mg/kg/injection, schedule: Q04DX003 (ip), vehicle: saline with Tween-80): 108 % of control | T/C [7]: 100 % of control | T/C (dose: 200.0 mg/kg/injection, schedule: Q04DX003 (ip), vehicle: saline with Tween-80): 100 % of control

COC(=O)CN(c1c(C)cc(C)c(N)c1C)S(=O)(=O)c1ccccc1
T/C (dose: 100.0 mg/kg/injection, schedule: Q01DX001 (ip), vehicle: Klucel (hydroxypropylcellulose) (HPC)): 91 % of control | T/C (dose: 400.0 mg/kg/injection, schedule: Q01DX001 (ip), vehicle: Klucel (hydroxypropylcellulose) (HPC)): 100 % of control

COc1ccc(C(=O)CC(C(=O)O)c2ccc3c(c2)OCO3)cc1OC (stereo not given)
T/C [6]: 109 % of control | T/C [7]: 100 % of control | T/C (dose: 400.0 mg/kg/injection, schedule: Q01DX009 (ip), vehicle: saline with Tween-80): 104 % of control

COc1cccc(C2N=NC3=C(CCCC3)N2O)c1O (stereo not given)
T/C [8]: 95 % of control | T/C [9]: 87 % of control | T/C [10]: 96 % of control

O=C(CCCCC(=O)Nc1ccc(C2=NCCN2)cc1)Nc1ccc(C2=NCCN2)cc1
T/C (dose: 3.6 mg/kg/injection, schedule: Q01DX009 (ip), vehicle: Klucel (hydroxypropylcellulose) (HPC)): 104 % of control | T/C (dose: 5.4 mg/kg/injection, schedule: Q01DX009 (ip), vehicle: Klucel (hydroxypropylcellulose) (HPC)): 100 % of control | T/C (dose: 65.0 mg/kg/injection, schedule: Q01DX009 (ip), vehicle: Klucel (hydroxypropylcellulose) (HPC)): 168 % of control | T/C [11]: 190 % of control | T/C (dose: 100.0 mg/kg/injection, schedule: Q04DX003 (ip), vehicle: other): 111 % of control | T/C (dose: 132.0 mg/kg/injection, schedule: Q01DX009 (ip), vehicle: Klucel (hydroxypropylcellulose) (HPC)): 204 % of control | T/C [10]: 225 % of control and 172 % of control and 209 % of control | T/C (dose: 200.0 mg/kg/injection, schedule: Q04DX003 (ip), vehicle: other): 116 % of control | T/C (dose: 264.0 mg/kg/injection, schedule: Q04DX003 (ip), vehicle: Klucel (hydroxypropylcellulose) (HPC)): 180 % of control | T/C [3]: 257 % of control and 213 % of control | T/C [12]: 100 % of control | T/C [4]: 225 % of control and 168 % of control | T/C (dose: 400.0 mg/kg/injection, schedule: Q04DX003 (ip), vehicle: other): 161 % of control

O=C(Nc1ccccc1F)Nc1ccccc1Cl
T/C [8]: 110 % of control and 112 % of control | T/C [9]: 86 % of control and 105 % of control | T/C [11]: 101 % of control and 110 % of control | T/C [10]: 97 % of control and 120 % of control | T/C [12]: 106 % of control and 107 % of control and 117 % of control

Cc1nc2nc(C(F)(F)F)[nH]c2nc1C
T/C [13]: 99 % of control | T/C [5]: 105 % of control | T/C [6]: 102 % of control | T/C [7]: 94 % of control

CC(=O)[C@@]1(O)CC[C@H]2[C@@H]3C[C@H](C)C4=CC(=O)C=C[C@]4(C)[C@@]3(F)[C@@H](O)C[C@@]21C
T/C (dose: 5.0 mg/kg/injection, schedule: Q01DX010 (sc), vehicle: steriod suspending solution): 109 % of control | T/C (dose: 10.0 mg/kg/injection, schedule: Q01DX010 (sc), vehicle: steriod suspending solution): 109 % of control | T/C (dose: 20.0 mg/kg/injection, schedule: Q01DX010 (sc), vehicle: steriod suspending solution): 118 % of control | T/C (dose: 80.0 mg/kg/injection, schedule: Q01DX010 (sc), vehicle: steriod suspending solution): 118 % of control | T/C (dose: 320.0 mg/kg/injection, schedule: Q01DX010 (sc), vehicle: steriod suspending solution): 95 % of control and 112 % of control | T/C (dose: 640.0 mg/kg/injection, schedule: Q01DX010 (sc), vehicle: steriod suspending solution): 112 % of control

CCN(CC)CCSC(=O)C(O)(c1ccccc1)C1CCCC1 (stereo not given)
T/C (dose: 25.0 mg/kg/injection, schedule: Q01DX009 (ip), vehicle: saline): 109 % of control | T/C (dose: 25.0 mg/kg/injection, schedule: Q04DX003 (ip), vehicle: saline): 109 % of control | T/C (dose: 50.0 mg/kg/injection, schedule: Q01DX009 (ip), vehicle: saline): 95 % of control | T/C (dose: 50.0 mg/kg/injection, schedule: Q04DX003 (ip), vehicle: saline): 104 % of control | T/C (dose: 100.0 mg/kg/injection, schedule: Q01DX009 (ip), vehicle: saline): 113 % of control | T/C [14]: 109 % of control

Nc1nc(N)c2c(Cl)c(CNc3ccc(Cl)c(Cl)c3)ccc2n1
T/C [15]: 154 % of control | T/C (dose: 6.25 mg/kg/injection, schedule: Q01DX009 (ip), vehicle: water): 123 % of control | T/C [16]: 169 % of control | T/C (dose: 12.5 mg/kg/injection, schedule: Q01DX009 (ip), vehicle: water): 179 % of control | T/C (dose: 25.0 mg/kg/injection, schedule: Q01DX009 (ip), vehicle: water): 203 % of control | T/C (dose: 25.0 mg/kg/injection, schedule: Q04DX003 (ip), vehicle: water): 116 % of control | T/C (dose: 50.0 mg/kg/injection, schedule: Q01DX009 (ip), vehicle: water): 88 % of control | T/C (dose: 50.0 mg/kg/injection, schedule: Q04DX003 (ip), vehicle: water): 169 % of control | T/C (dose: 100.0 mg/kg/injection, schedule: Q04DX003 (ip), vehicle: water): 153 % of control and 173 % of control | T/C (dose: 300.0 mg/kg/injection, schedule: Q04DX003 (ip), vehicle: water): 86 % of control

CCCCCCC(=O)/C=C/c1c(Cl)cccc1Cl
T/C [13]: 91 % of control | T/C [5]: 112 % of control | T/C [6]: 103 % of control and 108 % of control | T/C [7]: 116 % of control

O=c1c(N=Nc2ccccc2)c[nH]n1-c1ccccc1
T/C (dose: 62.5 mg/kg/injection, schedule: Q01DX009 (ip), vehicle: saline with Tween-80): 90 % of control | T/C (dose: 250.0 mg/kg/injection, schedule: Q01DX009 (ip), vehicle: saline with Tween-80): 88 % of control

O=C1OC(O)C(Cl)=C1Cl (stereo not given)
T/C (dose: 1.56 mg/kg/injection, schedule: Q01DX009 (ip), vehicle: saline with Tween-80): 101 % of control | T/C (dose: 3.12 mg/kg/injection, schedule: Q01DX009 (ip), vehicle: saline with Tween-80): 107 % of control | T/C [15]: 109 % of control and 115 % of control | T/C [16]: 115 % of control

COc1ccc2c(c1)CCN1C2CCN2C(=O)CCC21 (stereo not given)
T/C (dose: 100.0 mg/kg/injection, schedule: Q01DX009 (ip), vehicle: saline sonified): 104 % of control | T/C (dose: 200.0 mg/kg/injection, schedule: Q01DX009 (ip), vehicle: saline sonified): 113 % of control | T/C (dose: 400.0 mg/kg/injection, schedule: Q01DX009 (ip), vehicle: saline sonified): 100 % of control

CC1(C)C2CC3C(=CCCC3C#N)C1C2 (stereo not given)
T/C [1]: 100 % of control | T/C [2]: 100 % of control | T/C [4]: 100 % of control

CC(=O)NCCC(C)C
T/C [14]: 104 % of control | T/C (dose: 200.0 mg/kg/injection, schedule: Q04DX003 (ip), vehicle: saline): 113 % of control | T/C (dose: 400.0 mg/kg/injection, schedule: Q04DX003 (ip), vehicle: saline): 109 % of control

— PubChem BioAssay AID328 (DTP/NCI, 2004)
